# Data from patent US20170050957A1, “4-AMINO-6-(HETEROCYCLIC)PICOLINATES AND 6-AMINO-2-(HETEROCYCLIC)PYRIMIDINE-4-CARBOXYLATES AND THEIR USE AS HERBICIDES” (Dow AgroSciences LLC, priority 2013, published 2017).
# Like-named read-outs stand apart in the source and are kept apart here.
# How the values were obtained:
# [1] = test system: Key Broadleaf Weed and Crop Species; assay: Post-emergent Test II herbicidal activity (Table 15); assay type: in vivo; settings: post-emergence, 336 h, 14 d; for pest or weed control at 35 g/ha: 35 g ai/ha; for pest or weed control at 70 g/ha: 70 g ai/ha; for pest or weed control at 140 g/ha: 140 g ai/ha
# Summary of the method: (§1)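 Post-emergence spray; seedlings 7-21 d old, 1st-2nd true leaf; 187 L/ha; serial rates 1×-1/16×; solvent blank controls; subirrigated; visual % injury at 14 d.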
# [2] = test system: Key Grass and Sedge Weeds as well as Grass Crops; assay: Post-emergent Test II herbicidal activity (Table 16); assay type: in vivo; settings: post-emergence, 336 h; for pest or weed control at 35 g/ha: 35 g ai/ha; for pest or weed control at 70 g/ha: 70 g ai/ha; for pest or weed control at 140 g/ha: 140 g ai/ha
# Summary of the method: as §1
# [3] = Abutilon theophrasti, velvetleaf (Abutilon theophrasti), read-out: Visual Growth Reduction (%) 14 Days After Application, ABUTH
# [4] = Amaranthus retroflexus, redroot pigweed (Amaranthus retroflexus), read-out: Visual Growth Reduction (%) 14 Days After Application, AMARE
# [5] = Brassica napus, oilseed rape, canola (Brassica napus), read-out: Visual Growth Reduction (%) 14 Days After Application, BRSNN
# [6] = Chenopodium album, lambsquarters (Chenopodium album), read-out: Visual Growth Reduction (%) 14 Days After Application, CHEAL
# [7] = Euphorbia heterophylla, wild poinsettia (Euphorbia heterophylla), read-out: Visual Growth Reduction (%) 14 Days After Application, EPHHL
# [8] = Helianthus annuus, sunflower (Helianthus annuus), read-out: Visual Growth Reduction (%) 14 Days After Application, HELAN
# [9] = Cyperus esculentus, yellow nutsedge (Cyperus esculentus), 14 days after application, read-out: Visual Growth Reduction (%) 14 Days After Application CYPES
# [10] = Echinochloa crus-galli, barnyardgrass (Echinochloa crus-galli), 14 days after application, read-out: Visual Growth Reduction (%) 14 Days After Application ECHCG
# [11] = Oryza sativa, rice (Oryza sativa), 14 days after application, read-out: Visual Growth Reduction (%) 14 Days After Application ORYSA
# [12] = Setaria faberi, giant foxtail (Setaria faberi), 14 days after application, read-out: Visual Growth Reduction (%) 14 Days After Application SETFA
# [13] = Triticum aestivum, wheat, spring (Triticum aestivum), 14 days after application, read-out: Visual Growth Reduction (%) 14 Days After Application TRZAS
# [14] = Zea mays, maize, corn (Zea mays), 14 days after application, read-out: Visual Growth Reduction (%) 14 Days After Application ZEAMX
# [15] = Cyperus esculentus, yellow nutsedge (Cyperus esculentus), 14 d, read-out: Visual Growth Reduction (%) 14 Days After Application, CYPES
# [16] = Echinochloa crus-galli, barnyardgrass (Echinochloa crus-galli), 14 d, read-out: Visual Growth Reduction (%) 14 Days After Application, ECHCG
# [17] = Oryza sativa, rice (Oryza sativa), 14 d, read-out: Visual Growth Reduction (%) 14 Days After Application, ORYSA
# [18] = Setaria faberi, giant foxtail (Setaria faberi), 14 d, read-out: Visual Growth Reduction (%) 14 Days After Application, SETFA
# [19] = Triticum aestivum, wheat, spring (Triticum aestivum), 14 d, read-out: Visual Growth Reduction (%) 14 Days After Application, TRZAS
# [20] = Zea mays, maize, corn (Zea mays), 14 d, read-out: Visual Growth Reduction (%) 14 Days After Application, ZEAMX
melting point,Structure (SMILES),"pest or weed control at 35 g/ha [1, 3]","pest or weed control at 70 g/ha [1, 3]","pest or weed control at 140 g/ha [1, 3]","pest or weed control at 35 g/ha [1, 4]","pest or weed control at 70 g/ha [1, 4]","pest or weed control at 140 g/ha [1, 4]","pest or weed control at 35 g/ha [1, 5]","pest or weed control at 70 g/ha [1, 5]","pest or weed control at 140 g/ha [1, 5]","pest or weed control at 35 g/ha [1, 6]","pest or weed control at 70 g/ha [1, 6]","pest or weed control at 140 g/ha [1, 6]","pest or weed control at 35 g/ha [1, 7]","pest or weed control at 70 g/ha [1, 7]","pest or weed control at 140 g/ha [1, 7]","pest or weed control at 35 g/ha [1, 8]","pest or weed control at 70 g/ha [1, 8]","pest or weed control at 140 g/ha [1, 8]",further results
186 to 187 °C,Nc1c(F)c(-c2ccc3scnc3c2)nc(C(=O)O)c1Cl [Compound 6.02],85 to 94%,85 to 94%,85 to 94%,95 to 100%,95 to 100%,95 to 100%,95 to 100%,95 to 100%,95 to 100%,95 to 100%,95 to 100%,95 to 100%,95 to 100%,95 to 100%,95 to 100%,95 to 100%,95 to 100%,95 to 100%,"pest or weed control at 35 g/ha [2, 9]: 45 to 59%; pest or weed control at 70 g/ha [2, 9]: 45 to 59%; pest or weed control at 140 g/ha [2, 9]: 45 to 59%; pest or weed control at 35 g/ha [2, 10]: 75 to 84%; pest or weed control at 70 g/ha [2, 10]: 75 to 84%; pest or weed control at 140 g/ha [2, 10]: 85 to 94%; pest or weed control at 35 g/ha [2, 11]: 0 to 29%; pest or weed control at 70 g/ha [2, 11]: 0 to 29%; pest or weed control at 140 g/ha [2, 11]: 0 to 29%; pest or weed control at 35 g/ha [2, 12]: 0 to 29%; pest or weed control at 70 g/ha [2, 12]: 45 to 59%; pest or weed control at 140 g/ha [2, 12]: 60 to 74%; pest or weed control at 35 g/ha [2, 13]: 0 to 29%; pest or weed control at 70 g/ha [2, 13]: 0 to 29%; pest or weed control at 140 g/ha [2, 13]: 30 to 44%; pest or weed control at 35 g/ha [2, 14]: 0 to 29%; pest or weed control at 70 g/ha [2, 14]: 0 to 29%; pest or weed control at 140 g/ha [2, 14]: 0 to 29%"
169 °C,COC(=O)c1nc(-c2ccc(Cl)c3ccoc23)cc(N)c1Cl [Compound 2.25],75 to 84%,75 to 84%,95 to 100%,95 to 100%,95 to 100%,95 to 100%,0 to 29%,45 to 59%,75 to 84%,95 to 100%,95 to 100%,95 to 100%,0 to 29%,75 to 84%,85 to 94%,0 to 29%,30 to 44%,85 to 94%,"pest or weed control at 35 g/ha [2, 15]: 0 to 29%; pest or weed control at 70 g/ha [2, 15]: 30 to 44%; pest or weed control at 140 g/ha [2, 15]: 75 to 84%; pest or weed control at 35 g/ha [2, 16]: 0 to 29%; pest or weed control at 70 g/ha [2, 16]: 0 to 29%; pest or weed control at 140 g/ha [2, 16]: 0 to 29%; pest or weed control at 35 g/ha [2, 17]: 0 to 29%; pest or weed control at 70 g/ha [2, 17]: 0 to 29%; pest or weed control at 140 g/ha [2, 17]: 0 to 29%; pest or weed control at 35 g/ha [2, 18]: 0 to 29%; pest or weed control at 70 g/ha [2, 18]: 0 to 29%; pest or weed control at 140 g/ha [2, 18]: 0 to 29%; pest or weed control at 35 g/ha [2, 19]: 0 to 29%; pest or weed control at 70 g/ha [2, 19]: 0 to 29%; pest or weed control at 140 g/ha [2, 19]: 0 to 29%; pest or weed control at 35 g/ha [2, 20]: 0 to 29%; pest or weed control at 70 g/ha [2, 20]: 0 to 29%; pest or weed control at 140 g/ha [2, 20]: 45 to 59%"
